Measured values reported in patent US20220411448A1, “CHROMENE-4-ONE DERIVATIVES AS BRAIN-DERIVED NEUROTROPHIC FACTOR (BDNF) MIMETICS” (FLORATEK PHARMA AG, priority 2019, published 2022).
pIC50: −log10 of the molar value.

Assays:
[1] = test system: TrkB receptor; test: Activation of TrkB receptor: phosphorylation in cortical neurons (WES capillary immunoassay); type: cell-based, mouse
Experimental: On the day of preparation (DIV1) cortical neurons were seeded on poly-D-lysine pre-coated 6-well plates at a density of 1.25*10^6 cells per well and cultured at 37° C.; 95% humidity and 5% CO2 until […] with a half medium exchange on DIV4-6. On DIV10 cells are treated with test item TI (SND118) and control Rh (7,8DHF) at different concentrations for 15 min. The experiment was carried out with n=6 technical replicates per condition, vehicle treated cells served as control. Cells were lysed in 150 μL cold RIPA buffer [50 mM Tris pH 7.4, 1% Nonidet P40, 0.25% Na-deoxy-cholate, 150 mM NaCl, 1 mM EDTA supplemented with freshly added 1 μM NaF, 0.2 mM Na-ortho-vanadate, 80 μM Glycerophosphate, protease (Calbiochem) and phosphatase (Sigma) inhibitor cocktail.
Phosphorylation of the TrkB receptor was detected using the following rabbit anti-Tyr specific antibodies: anti-TrkB Y515, Y706/707 and Y816 and compared with total TrkB detected with anti-TrkB antibody (Abcam). Antibody dilutions and protein amounts were optimized for signal specificity.
Automated separation and immunostaining of total and phospho TrkB was carried out using a capillary-based immunoassay, WES™ (Proteinsimple®). Samples were applied to a 25 capillary cartridge with a 2 to 440 kDa matrix, at an optimized total protein concentration. Sample loading, separation, immunoprobing, washing, detection and quantitative data analysis were performed automatically by WES™ Western system (Compass software V 4.0.0). The areas under the curve were used for the analysis and the phosphorylated versus vehicle or total TrkB signal ratio was calculated and used for statistics.

[2] = test system: organotypic hippocampal brain slices with IAA lesion; test: Organotypic brain slices, iodoacetic acid injury: cell survival (MTT); type: cell-based, mouse; conditions: SND118 10 and 30 μM; SND124 30 μM; 7,8 DHF 10 μm; IAA 250 μM for 110 min
Experimental: (§1) Preparation of the organotypic brain slices were performed by decapitation of the P9/P10 mouse pups, removing skin and skull and immersing brains in slicing medium (Opti-MEM 1, […]). Brains were hemisected and hippocampi were isolated. Hippocampi were placed on the cutting disc of a McIlwain Tissue Chopper. […] hippocampal slices were chopped transversely. A number of 4 slices per hippocampus were placed on porous (0.4 μM) transparent membrane inserts (Millipore) and incubated for 1 h on ice in HBSS containing 10 mM glucose. Afterwards inserts were transferred to fresh 24-well plates containing 250-300 μl culture medium (50% MEM/EBSS, 25% horse serum, 25% CMF-HBSS, 25 mM glucose, 0.5% pen/strep). Slices were maintained at 37° C. and 5% CO2.
(§2) On DV15, brain slices were pretreated with SND derivatives test compounds and the reference 7,8DHF at various concentrations (between […]) for 30 min, followed by the addition of iodoacetic acid (IAA) at 250 μM for 110 min, when cell survival, MMP and toxicity were measured.
Cell survival was measured by the MTT assay. For the determination of mitochondrial membrane potential, treated organotypic brain slices were loaded with the mitochondrial fluorescent dye, tetramethylrhodamine methyl ester (TMRM) at a final concentration of 100 nM in PBS and incubated for 45 min at 37° C. The TMRM containing solution was aspirated and slices were transferred into new well plates containing the appropriate amount of PBS. Fluorescence was measured with a plate-reader (Cytation 5) using wavelengths of excitation and emission of 548 and 574 nm, respectively (area scan). Values were calculated as percent of control values (vehicle control). Toxicity of the treatment was measured by LDH. No toxicity was observed.

[3] = test system: cortical neurons treated with glutamate; test: Neuron protection from glutamate injury: mitochondrial membrane potential (rhodamine 123); type: cell-based, rat
Experimental: (§3) Cortices were harvested from E19 rat embryos and dissociated enzymatically and mechanically. Dissociated cells were plated in poly-D-lysine coated imaging plates (384 wells), in 70 μL of neuronal growth medium (Neurocult Neuronal Basal medium+SM1 neuronal supplements+L-glutamine+HEPES). Cells were incubated at 37° C., 5% CO2 and half of the medium was changed twice per week.
For mitochondrial membrane potential measurement (MMP) neurons were cultured 10 to 14 days in vitro, the growth medium was discarded and wells were washed with 50 μL of extracellular saline. Saline was removed and replaced by 25 μL of staining solution (rhodamine 123 in a saline solution containing 1.5 mM Calcium, pyruvate and verapamil). The cells were incubated 30 min at 37° C./5% CO2. 5 μL of a staining solution with or without the test substances at 6× concentrated was added in the wells. […]
Glutamate was prepared 6× concentrated (6 μL on top of the 30 μL) in saline or saline+test compounds 1× concentrated depending on the conditions. […] Basal MMP levels were measured for 1 minute before automated addition of the compounds or controls while recording. MMP signals were further recorded for 30 minutes to 1 hour. […]
Rhodamine 123 is a cationic fluorescent dye that is used to specifically label respiring mitochondria. […] Loss of potential will result in loss of the dye and, therefore, the fluorescence intensity.

[4] = biological target: T1, MAO-A (Homo sapiens, UniProt P21397); test: In vitro inhibition of monoamine oxidase type A (BioVision MAO-A inhibitor screening kit); type: biochemical; conditions: read-out: IC50 in vitro inhibition of MOA-A enzyme
T1 construct: purchased BioVision K796
T1 sequence (P21397 1-527): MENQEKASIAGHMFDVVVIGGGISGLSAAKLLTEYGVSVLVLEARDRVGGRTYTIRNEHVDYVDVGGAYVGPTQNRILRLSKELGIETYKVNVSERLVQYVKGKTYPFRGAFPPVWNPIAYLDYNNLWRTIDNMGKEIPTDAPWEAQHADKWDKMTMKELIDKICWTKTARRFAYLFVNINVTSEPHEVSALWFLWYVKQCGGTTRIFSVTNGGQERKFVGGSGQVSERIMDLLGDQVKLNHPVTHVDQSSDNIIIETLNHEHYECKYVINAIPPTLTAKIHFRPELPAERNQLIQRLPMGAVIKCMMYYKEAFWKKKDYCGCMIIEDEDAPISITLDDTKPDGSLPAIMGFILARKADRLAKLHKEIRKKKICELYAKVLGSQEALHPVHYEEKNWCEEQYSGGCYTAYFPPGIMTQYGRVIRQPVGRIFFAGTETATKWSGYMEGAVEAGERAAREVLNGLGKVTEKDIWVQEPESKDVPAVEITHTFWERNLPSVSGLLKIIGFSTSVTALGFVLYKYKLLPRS
Experimental: BioVision's MAO-A inhibitor screening kit (BioVision Cat no. K796) was used to assess inhibitory effects of the test items (TIs) on MAO-A in a fluorescent assay.
The assay was carried out according to the provided protocol: TIs were diluted to 10× with MAO-A Assay Buffer before use. 10 μl of test inhibitor (S), working solution of Inhibitor Control (IC; Clorgyline, 1 μM final in the well) and MAO-A Assay Buffer (Enzyme Control; EC) were added into assigned wells. 50 μl of diluted MAO-A Enzyme Solution was added to each well and incubated for 10 min at RT. To check the possible inhibitory effect of TIs on Developer, one well with TI was prepared parallel and incubated with 50 μl of a H2O2 mix instead of the MAO-A Enzyme Solution.
The reaction was started by adding 40 μl of the prepared substrate mix. Measurement of the fluorescence (Ex/Em=535/587 nm) was done kinetically at 25° C. for 10-30 min. Two time points (t1 and t2) in the linear range of the plot were chosen for further calculations (2 min and 6 min). The slope for all Sample Compounds [S], Enzyme Control [EC], Vehicle Control [VC] and Background Control [BC] were calculated by dividing the net ARFU (RFU2-RFU1) values by the time Δt (t2−t1). The slope obtained for the Background Control reaction was subtracted from the [S], [EC] and [VC] values. […]

[5] = test system: organotypic hippocampal brain slices with IAA lesion; test: Organotypic brain slices, iodoacetic acid injury: mitochondrial membrane potential (TMRM); type: cell-based, mouse; conditions: SND118 10 and 30 μM; SND124 30 μM; IAA 250 μM for 110 min
Experimental: as §1, §2
Cell survival was measured by the MTT assay. […] Fluorescence was measured with a plate-reader (Cytation 5) using wavelengths of excitation and emission of 548 and 574 nm, respectively (area scan). Values were calculated as percent of control values (vehicle control). Toxicity of the treatment was measured by LDH. […]

[6] = test system: cortical neurons treated with glutamate; test: Neuron protection from glutamate injury: intracellular calcium measurement; type: cell-based, rat
Experimental: as §3
For Calcium measurement, the cells were cultured for 10 to 14 days in vitro, the growth medium was discarded and replaced by 25 μL of a calcium probe in a saline solution (containing 1.5 mM Calcium) for 30 min at 37° C./5% CO2. 5 μL of calcium probe in a saline solution with or without the test substances at 6× concentrated was added in the wells for the pre-treatment step. The wells were further incubated 30 min at 37° C./5% CO2
For calcium measurement, at the end of the pre-treatment, glutamate was prepared at 6× concentrated (6 μL on top of the 30 μL). The final vehicle concentration in all conditions was adjusted. Basal calcium levels was measured for 1 minute before automated addition of the compounds or controls while recording. Intracellular calcium signals was further recorded for 5 to 10 minutes at a sampling rate of around 1 point per second. Each experimental condition was tested in quadruplicate wells.

[7] = test system: primary cultures of cerebral cortical astrocytes; conditions: glutamate 200 μM, positive control; cited from earlier work

## O=c1cc(-c2ccccc2)oc2c(O)c(O)ccc12 [7,8DHF, 7,8-dihydroxyflavone, reference compound]
[1]; 1 and 2 μM
  phosphorylation of the TrkB receptor at sites Tyr 515 and Tyr 816: induced a lower phosphorylation, which did not reach statistical significance
[1]; SND118 2 μM
  phosphorylation of TrkB at Tyr residue 706/707 versus the vehicle: neither the derivative nor the 7,8DHF reached statistical significance
[2]
  cell survival upon IAA lesion (MTT): no effect

## C[C@]12N[C@H](Cc3ccccc31)c1ccccc12 [MK801, [(+)-5-methyl-10,11-dihydroxy-5H-dibenzo(a,d)cyclohepten-5,10-imine], reference compound]
[3]; MK801 10 μM, control compound
  mitochondria potential increased by glutamate (rhodamine 123): restored

## CCNC(=O)Oc1ccc2c(=O)cc(-c3ccc(CCCC[P+](c4ccccc4)(c4ccccc4)c4ccccc4)cc3)oc2c1OC(=O)NCC.[Br-] [SND124, 4-[4-[7,8-Bis(ethylcarbamoyloxy)-4-oxo-chromen-2-yl]phenyl]-butyltriphenylphosphonium bromide]
[4]
  pIC50: 4.70
[5]
  mitochondria function (MMP, TMRM) after IAA lesion: rescued mitochondria function
[2]
  cell survival upon IAA lesion (MTT): statistically increase cell survival

## COc1c(O)ccc2c(=O)cc(-c3ccc(CCCC[P+](c4ccccc4)(c4ccccc4)c4ccccc4)cc3)oc12.[Br-] [SND135, (4-(4-(7-hydroxy-8-methoxy-4-oxo-4H-chromen-2-yl)phenyl)butyl)triphenylphosphonium bromide]
[6]; SND135 30 μM, glutamate 30 μM
  calcium release induced by glutamate: decreased
[6]; SND135 10 and 30 μM, glutamate 10 and 30 μM
  calcium release induced by glutamate (maximum peak of calcium kinetic): decreases calcium release
[3]; SND135 between 3 and 30 μM, glutamate between 10 and 100 μM
  mitochondria potential induced by glutamate (rhodamine 123): decreases mitochondria potential

## N[C@@H](CCC(=O)O)C(=O)O [glutamate]
[7]
  increase of glucose entry: 20 to 30%
